Test results published in patent US5159085A, “2-anilino phenylacetic acid derivatives as inhibitors of PLA2 and lipoxygenase” (American Home Products Corporation, priority 1991, dated 1992).
Like-named read-outs stand apart in the source and are kept apart here.

Assays:
[1] = test system: TxB2 synthesis (cyclooxygenase) by rat glycogen-elicited polymorphonuclear leukocytes; assay: Inhibition of TxB2 synthesis by rat glycogen-elicited PMN (cyclooxygenase); assay type: cell-based, rat (female Wistar); conditions: read-out: IC50 (TxB2 synthesis)
Protocol: Rat polymorphonuclear leukocytes (PMNs) are obtained from female Wistar rats (150-200 g) which receive an injection of 6% glycogen (10 ml i.p.). Rats are sacrificed 18-24 hours post injection by CO2 asphyxiation and the elicited cells are harvested by peritoneal lavage using physiological saline (0.9% NaCl). The exudate is centrifuged at 400×g for 10 minutes. The supernatant fluid is discarded and the cell pellet is resuspended to a concentration of 2.0×10^7 cells/ml in HBSS containing Ca^++ and Mg^++ and 10 μM L-cysteine.
To 1 ml aliquots of cell suspension, test drugs or vehicle are added, then preincubated at 37° C. for 10 minutes. A 23187 (1 μM), [^3 H]-AA (3.0 μCi/ml) and unlabeled AA (1 μM) are then added and the samples are further incubated for 10 minutes. The reaction is terminated by centrifugation and pelleting cells. Supernatants are then analyzed by HPLC analysis on a 15 cm×4.6 mm ID supelcosil LC-18 (Supelco)(3M) column, using a two solvent system at a flow rate of 1.4 ml total flow as follows:
Percent solvent changes are accomplished in a linear fashion.
Injections: 150 μl of each supernatant is injected directly onto column and ^3 H arachidonic acid metabolites are monitored using an on-line radioactivity detector (Ramona, IN/US, Fairfield, NJ).
Standards: 10^4 -2.0×10^4 dpm of eicosanoids of interest are injected in 90 μl EtOH cocktail.
Co-chromatography with standard [^3 H] leukotriene B4 (LTB4) in medium of stimulated PMN exposed to drug is compared to that found in medium of stimulated cells exposed to no drug, generating percent inhibition.
Results are expressed as percent inhibition at a given compound dose or as an IC50 value.
In this assay, the procedure of Example 19 is carried out as described. However, in order to determine cyclooxygenase activity, the samples are co-chromatographed with authentic reference [^3 H]-TxB2.
The results are calculated as in Example 19 and presented below: […]

[2] = target: T1, human platelet PLA2 (Homo sapiens, UniProt P14555); assay: In vitro isolated phospholipase A2 assay, human platelet PLA2 (arachidonic acid release from 3H-AA E. coli substrate); assay type: biochemical
T1 construct: Semipurified human platelet acid extract PLA2; from tissue; host or cells: human platelets (semipurified acid extract)
T1 sequence (P14555 21-144): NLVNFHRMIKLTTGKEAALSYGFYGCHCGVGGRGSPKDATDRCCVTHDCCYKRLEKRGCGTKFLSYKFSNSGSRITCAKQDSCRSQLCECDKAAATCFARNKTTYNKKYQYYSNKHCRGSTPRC

[3] = target: T2, human synovial fluid PLA2 (Homo sapiens, UniProt P14555); assay: In vitro isolated phospholipase A2 assay, human synovial fluid PLA2; assay type: biochemical
T2 construct: Purified human synovial fluid; from tissue; host or cells: human synovial fluid
T2 sequence (P14555 21-144): T1 sequence (P14555 21-144)
Protocol: The compounds of the invention are tested in an in vitro isolated phospholipase A2 assay to determine the ability of the test compounds to inhibit the release of arachidonic acid from an arachidonic acid-containing substrate by the action of phospholipase A2 enzyme from human and non-human sources.
(§1) This assay is carried out as follows:
Into a 15 mL polypropylene tube are added the following:
*pre-incubate at room temperature 30 min prior to substrate addition.
^5 Stock 10 mM prepared in dimethyl sulfoxide. Make 1:2 dilution with
dimethyl sulfoxide and add 1 μ L to 100 μL assay tube.
^6 Two human PLA2 enzymes are used:
b) Purified human synovial fluid.
Incubate the 100 μL reaction mixture for 10 minutes at 37° C. in a shaking water bath. The reaction is terminated by the addition of 2 mL tetrahydrofuran, followed by vortexing. NH2 columns (100 μg/mL--Analytichem International) are conditioned with 0.5 mL tetrahydrofuran followed by 0.5 mL tetrahydrofuran/water (2 mL:0.1 mL, v/v).
The sample is loaded onto the columns and slowly drawn through them. The hydrolyzed arachidonic acid retained in the columns is eluted therefrom with 1 mL tetrahydrofuran/glacial acetic acid (2%). The arachidonic acid is transferred to scintillation vials and quantitated by β-counting analysis. A "total counts" sample is prepared by pipetting 25 μL ^3 H-arachidonate E. coli directly into a scintillation vial to which is added 1 mL tetrahydrofuran. 10 mL aquasol (scintillation cocktail) is added to all samples. [formula]

[4] = test system: paw edema induced by exogenous PLA2 (snake, A. piscivorus piscivorus); assay: In vivo PLA2 murine paw edema assay; set-up: species or system mouse (male CD-1)
Protocol: The ability of the compounds of the invention to inhibit paw edema induced by the exogenous administration of PLA2 is measured in the in vivo PLA2 murine paw edema assay.
The assay is carried out as follows:
Non-fasted, male CD-1 mice (8 weeks old; 31-36 grams) are placed in plastic boxes in groups of six. The right hind paw volume is measured using mercury plethysmography (zero time). […] A solution of purified PLA2, from the diamond back cotton mouth snake (A. piscivorus piscivorus) is prepared in saline at a concentration of 6 μg/ml. Fifty (50) μl (0.3 μg) of this PLA2 solution is injected subcutaneously into the right hind paw with a plastic 1 ml plastic syringe (27 gauge, 1" needle). Paw volume of the injected paw is measured again at 10 minutes, 30 minutes and 60 minutes after PLA2 injection. Animals are euthanized with CO2 at the completion of the study.
The paw edema is calculated by subtracting the zero time volume from the volume recorded at each time period. Mean paw edema for each treatment group is then calculated and expressed as (μl±S.E.). Drug effects are expressed as a percent change from control (vehicle) values. Statistical significance is determined by a one-way analysis of variance with LSD comparison to control (p<0.05). ED50 's are determined using repression analysis.

[5] = test system: carrageenan paw edema; assay: Rat carrageenan paw edema assay; assay type: in vivo, rat (male Sprague-Dawley)
Protocol: The compounds of the invention are further tested in the rat carrageenan paw edema assay to determine their ability to inhibit the acute inflammatory response.
as §1
140-180 gm Male Sprague-Dawley rats, in groups of 6 animals are injected subcutaneously in the right paw with 0.1 ml of 1% carrageenan at zero time. Mercury plethysmographic readings (ml) of the paw are made at zero time and 3 hours later. Test compounds are suspended or dissolved in 0.5% methylcellulose and given perorally 1 hour prior to carrageenan administration.
The increase in paw volume (edema in ml) produced by the carrageenan is measured. Paw edema is calculated (3 hour volume minus zero time volume), and percent inhibition of edema is determined. Unpaired Student's t-test is used to determine statistical significance.

## O=C(O)Cc1cc(OCc2ccc3ccccc3n2)ccc1Nc1c(Cl)cccc1Cl [Example 2, 2-[(2,6-Dichlorophenyl)amino]-5-(2-quinolylmethoxy)benzene acetic acid]
[1]; rat PMN, acetic acid
  IC50: ~10 µM
[2]; 10 μM, Table IV, read-out: % Inhibition at a concentration of 10 μM, HP
  inhibition at 10 µM: 12.7%
[3]; 10 μM, Table IV, read-out: % Inhibition at a concentration of 10 μM, HSF
  inhibition at 10 µM: 47.6%
[3]; human synovial fluid
  IC50: 6.3 µM
[4]; 10 mg/kg i.v.
  % Change in Edema 10 min: -45%
  % Change in Edema 30 min: -37%
  % Change in Edema 60 min: -32%
[4]; 100 mg/kg p.o.
  % Change in Edema 10 min: -52%
  % Change in Edema 30 min: -48%
  % Change in Edema 60 min: -28%
[5]; 25 mg/kg peroral
  % Inhibition: 63%
[5]; 50 mg/kg peroral
  % Inhibition: 58%
[5]; 100 mg/kg peroral
  % Inhibition: 66%

## O=C(O)Cc1ccccc1Nc1c(Cl)cccc1Cl [diclofenac, reference compound]
[1]; Rattus norvegicus, Leukocyte
  IC50: 0.03 µM
[2]; read-out: % Inhibition at 10 μM HP
  inhibition at 10 µM: 23%
[3]; read-out: % Inhibition at 10 μM HSF
  inhibition at 10 µM: 0%
[4]; 10 mg/kg i.v.
  % Change in Edema 10 min: -19%
  % Change in Edema 30 min: -15%
  % Change in Edema 60 min: -1%
[4]; 100 mg/kg p.o.
  % Change in Edema 10 min: -28%
  % Change in Edema 30 min: -38%
  % Change in Edema 60 min: -15%
[5]; 0.5 mg/kg peroral
  % Inhibition: 15%
[5]; 2.0 mg/kg peroral
  % Inhibition: 50%
[5]; 8.0 mg/kg peroral
  % Inhibition: 75%
[5]; Rattus norvegicus, po, 3 h
  ED50: 2.3 mg/kg
